Patent US20040037799A1, “Malodor suppression by fragrance composition” (priority 2002, published 2004)

Tests used:
[1] = Air diffusion coefficient of perfume materials; format: physicochemical
[2] = Malodor coverage by individual fragrance materials (Table 1)

| Molecule | Air Diffusion Coefficient [1] | Average Coverage ([2]; tested only at 5 and 38 C) | Average Coverage ([2]; scale not defined) |
| --- | --- | --- | --- |
| C=C1C2CCC(C2)C1(C)C (stereo not shown) | 0.0613 cm²/s | 3.0 | – |
| c1ccc(CCOC2CCCCC2)cc1 | 0.0477 cm²/s | – | 2.3 |
| CCCCCCCCCCC=CC#N | 0.0432 cm²/s | – | 3.0 |
| C=CCOC(=O)CCC1CCCCC1 [ALLYL CYCLOHEXYL PROPIONATE] | 0.0486 cm²/s | – | 2.6 |
| C=CCOC(=O)CCCCCC [ALLYL HEPTOATE (C-7), ALLYL HEPTOATE] | 0.0523 cm²/s | – | 2.6 |
| CC(C)CCOCCc1ccccc1 [ANTHER] | 0.0486 cm²/s | – | 2.6 |
| O=Cc1ccccc1 [BENZALDEHYDE] | 0.075 cm²/s | – | – |
| CO[C@]1(C)CC[C@@]23C[C@@H]1C(C)(C)[C@@H]2CC[C@H]3C [CEDRAMBER] | – | – | 2.3 |
| C[C@@H]1CC[C@H]2C(C)(C)[C@H]3C[C@@]12CC[C@@]3(C)O [CEDROL LIQUID 10%, CEDROL] | 0.0425 cm²/s | – | 3.3 |
| CCCCCCCCCCCC#N [CLONAL] | 0.0466 cm²/s | – | 3.0 |
| OCCC1CCCCC1 [CYCLOHEXYL ETHANOL] | 0.0629 cm²/s | – | 2.0 |
| CCCCCC1CCCC1=O (stereo not shown) [DELPHONE, FIRMENICH] | 0.0546 cm²/s | – | 4.0 |
| CC1CCC(C(C)(C)O)CC1 (stereo not shown) [DIHYDRO TERPINEOL] | 0.0547 cm²/s | – | 2.0 |
| CCOC(=O)CC(C)=O [ETHYL ACETOACETATE] | 0.0554 cm²/s | – | 1.6 |
| CC(C)=CCCC(C)C=O (stereo not shown) [MELONAL] | 0.0579 cm²/s | – | 2.0 |
| C=CCc1ccc(OC)cc1 [METHYL CHAVICOL] | 0.0591 cm²/s | – | 2.3 |
| COc1ccc2ccccc2c1 [NEROLIN YARA YARA 10%] | – | – | 2.6 |
| CC(C)OCCc1ccccc1 [PETIOLE] | – | – | 2.6 |
| CC1CC(C)(c2ccccc2)CO1 (stereo not shown) [RHUBAFURAN] | – | – | 2.6 |
| CC1=CCC2C3CC(C2C1)C1(C3)OC1C (stereo not shown) [RHUBOFIX] | – | – | 3.0 |
| CC(=O)c1cc2c(cc1C)C(C)(C)C(C)CC2(C)C (stereo not shown) [TONALID 10%] | – | – | 2.0 |

The next lines start with results.

| Air Diffusion Coefficient [1] | Molecule | Average Coverage ([2]; tested only at 5 and 38 C) | Average Coverage ([2]; scale not defined) |
| --- | --- | --- | --- |
| 0.0492 cm²/s | CC(=O)O[C@@H]1C[C@H]2CC[C@]1(C)C2(C)C (racemic) [ISO BORNYL ACETATE] | – | 2.6 |
| 0.0499 cm²/s | CCc1ccc(CC(C)(C)C=O)cc1 [FLORAZONE] | – | 3.6 |
| 0.0521 cm²/s | CC(C)CC1CC(C)(O)CCO1 (stereo not shown) [FLOROL] | – | 3.0 |
| 0.0478 cm²/s | CC(=O)OC/C=C(\C)CCC=C(C)C [GERANYL ACETATE] | – | 1.0 |
| 0.0445 cm²/s | CCCCCCC(C=O)=Cc1ccccc1 [HEXYL CINNAMIC ALDEHYDE] | – | 2.3 |
| 0.0418 cm²/s | CC(=O)C1(C)CC2=C(CCCC2(C)C)CC1C (stereo not shown) [ISO E SUPER] | – | 3.3 |
| 0.047 cm²/s | CC(C=O)Cc1ccc(C(C)(C)C)cc1 (stereo not shown) [LILIAL] | – | 2.6 |
| 0.0545 cm²/s | CC(C)C1CCC(CO)CC1 (stereo not shown) [MAYOL] | – | 2.3 |
| 0.0571 cm²/s | COC(Cc1ccccc1)OC [PADMA] | – | 3.3 |
| 0.0676 cm²/s | OCCc1ccccc1 [PHENYL ETHYL ALCOHOL] | – | 4.3 |
| 0.0649 cm²/s | CC(=O)OCC=C(C)C [PRENYL ACETATE] | – | 1.0 |
| 0.0444 cm²/s | CC/C(=C\CC1CC=C(C)C1(C)C)CO (stereo not shown) [SANDRANOL] | – | 3.3 |
| 0.0533 cm²/s | CCC(C)(O)CCCC(C)C (stereo not shown) [TETRAHYDRO LINAILOOL] | – | 2.6 |
| 0.0459 cm²/s | CCCCCC1(C)CCC(C)(C)C1=O (stereo not shown) [VELOUTONE] | – | 3.0 |
| 0.0453 cm²/s | METHYL IONONE GAMMA | – | 3.3 |
| 0.0552 cm²/s | METHYL NAPTHYL KETONE [METHYL NAPTHYL KETONE 10%] | – | 2.0 |
